Experiments:
Type in all cases: in vivo
Glycine max = assay: Test Example 4: effect on crop by application to foliage (diluvial soil, plastic box); details: for c (Glycine max) effect on crop: application to foliage, application herbicide amount 320 g/ha
Method in brief: (§1)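 Plants were grown in sterilized diluvial soil in a greenhouse at 25-30° C for 14 days, then sprayed on stems and leaves with water-diluted emulsion formulation at set rates in g/ha. Weed control and crop injury were scored 3 weeks after treatment on a 0-5 herbicidal-ratio scale, from 0 (≤5%) to 5 (≥90%).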

Brassica campestris L. = assay: as above; details: for g (Brassica campestris L.) effect on crop: application to foliage, application herbicide amount 320 g/ha
Method in brief: as §1

[1] = tested on: Beta vulgaris ssp. vulgaris; assay: as above; details: for f (Beta vulgaris ssp. vulgaris) effect on crop: application to foliage, application herbicide amount 320 g/ha
Method in brief: as §1

Zea mays = assay: as above; details: for b (Zea mays) effect on crop: application to foliage, application herbicide amount 320 g/ha
Method in brief: as §1

[2] = tested on: directly sowed Oryza sativa; assay: as above; details: for d (directly sowed Oryza sativa) effect on crop: application to foliage, application herbicide amount 320 g/ha
Method in brief: as §1

Triticum aestivum = assay: as above; details: for e (Triticum aestivum) effect on crop: application to foliage, application herbicide amount 320 g/ha
Method in brief: as §1

[3] = tested on: Echinochloa oryzacola Vasing.; assay: Test Example 1: herbicidal activity, application before weed generation in submerged conditions; details: Application herbicide amount 320 g/ha; Seventeenth Table
Method in brief: (§2)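 Pre-emergence application to water surface of submerged pots (4 cm depth, alluvial soil) on sowing day, with 2.5-leaf rice transplanted; emulsion diluted to g/ha rates. Grown in greenhouse at 25–30 °C; 0–5 herbicidal/crop-effect score after three weeks.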

Scirpus juncoides = assay: as above; details: Application herbicide amount 320 g/ha; Seventeenth Table
Method in brief: as §2

Monochoria vaginalis = assay: as above; details: Application herbicide amount 320 g/ha; Seventeenth Table
Method in brief: as §2

[4] = tested on: transplanted Oryza sativa; assay: Test Example 1: effect on crop, application before weed generation in submerged conditions; details: Application herbicide amount 320 g/ha; Seventeenth Table
Method in brief: as §2

Veronica persica = assay: Test Example 4: herbicidal effect by application to foliage (diluvial soil, plastic box); details: for R (Veronica persica) herbicidal effect: application to foliage, application herbicide amount 320 g/ha
Method in brief: as §1

Apera spica-venti. = assay: as above; details: for L (Apera spica-venti.) herbicidal effect: application to foliage, application herbicide amount 320 g/ha
Method in brief: as §1

Digitaria ciliaris = assay: as above; details: for F (Digitaria ciliaris) herbicidal effect: application to foliage, application herbicide amount 320 g/ha
Method in brief: as §1

Abutilon theophrasti = assay: as above; details: for M (Abutilon theophrasti) herbicidal effect: application to foliage, application herbicide amount 320 g/ha
Method in brief: as §1

Avena fatua = assay: as above; details: for I (Avena fatua) herbicidal effect: application to foliage, application herbicide amount 320 g/ha
Method in brief: as §1

Chenopodium album = assay: as above; details: for O (Chenopodium album) herbicidal effect: application to foliage, application herbicide amount 320 g/ha
Method in brief: as §1

[5] = tested on: Echinochloa crus-galli var. crus-galli; assay: as above; details: for H (Echinochloa crus-galli var. crus-galli) herbicidal effect: application to foliage, application herbicide amount 320 g/ha
Method in brief: as §1

Galium spurium = assay: as above; details: for Q (Galium spurium) herbicidal effect: application to foliage, application herbicide amount 320 g/ha
Method in brief: as §1

Lolium multiflorum Lam. = assay: as above; details: for K (Lolium multiflorum Lam.) herbicidal effect: application to foliage, application herbicide amount 320 g/ha
Method in brief: as §1

Alopecurus myosuroides = assay: as above; details: for J (Alopecurus myosuroides) herbicidal effect: application to foliage, application herbicide amount 320 g/ha
Method in brief: as §1

Setaria viridis = assay: as above; details: for G (Setaria viridis) herbicidal effect: application to foliage, application herbicide amount 320 g/ha
Method in brief: as §1

[6] = Application herbicide amount 320 g/ha, effect on crop
[7] = Application herbicide amount 320 g/ha

## Cc1nnc(NC(=O)c2ccc(C(F)(F)F)n3c(C4CCCC4)nnc23)o1 [1-026]
Glycine max
  c (Glycine max) effect on crop: 0 (Herbicidal ratio of 5% or less (almost no effect))
Brassica campestris L.
  g (Brassica campestris L.) effect on crop: 3 (Herbicidal ratio of 40% or more and less than 70%)
[1]
  f (Beta vulgaris ssp. vulgaris) effect on crop: 5 (Herbicidal ratio of 90% or more (almost completely withered))
Zea mays
  b (Zea mays) effect on crop: 0 (Herbicidal ratio of 5% or less (almost no effect))
[2]
  d (directly sowed Oryza sativa) effect on crop: 3 (Herbicidal ratio of 40% or more and less than 70%)
Triticum aestivum
  e (Triticum aestivum) effect on crop: 1 (Herbicidal ratio of 5% or more and less than 20%)
[3]
  A: Echinochloa oryzicola Vasing. (herbicidal effect grade): 5 (Herbicidal ratio of 90% or more (almost completely withered))
Scirpus juncoides
  B: Scirpus juncoides (herbicidal effect grade): 4 (Herbicidal ratio of 70% or more and less than 90%)
Monochoria vaginalis
  C: Monochoria vaginalis (herbicidal effect grade): 4 (Herbicidal ratio of 70% or more and less than 90%)
[4]
  a: transplanted Oryza sativa (effect on crop grade): 2 (Herbicidal ratio of 20% or more and less than 40%)
Veronica persica
  R (Veronica persica) herbicidal effect: 5 (Herbicidal ratio of 90% or more (almost completely withered))
Apera spica-venti.
  L (Apera spica-venti.) herbicidal effect: 2 (Herbicidal ratio of 20% or more and less than 40%)
Digitaria ciliaris
  F (Digitaria ciliaris) herbicidal effect: 3 (Herbicidal ratio of 40% or more and less than 70%)
Abutilon theophrasti
  M (Abutilon theophrasti) herbicidal effect: 3 (Herbicidal ratio of 40% or more and less than 70%)
Avena fatua
  I (Avena fatua) herbicidal effect: 1 (Herbicidal ratio of 5% or more and less than 20%)
Chenopodium album
  O (Chenopodium album) herbicidal effect: 5 (Herbicidal ratio of 90% or more (almost completely withered))
[5]
  H (Echinochloa crus-galli var. crus-galli) herbicidal effect: 3 (Herbicidal ratio of 40% or more and less than 70%)
Galium spurium
  Q (Galium spurium) herbicidal effect: 2 (Herbicidal ratio of 20% or more and less than 40%)
Lolium multiflorum Lam.
  K (Lolium multiflorum Lam.) herbicidal effect: 1 (Herbicidal ratio of 5% or more and less than 20%)
Alopecurus myosuroides
  J (Alopecurus myosuroides) herbicidal effect: 1 (Herbicidal ratio of 5% or more and less than 20%)
Setaria viridis
  G (Setaria viridis) herbicidal effect: 3 (Herbicidal ratio of 40% or more and less than 70%)

## Cc1nnc(NC(=O)c2ccc(C(F)(F)F)n3c(SC(C)C)nnc23)o1 [1-033]
Glycine max
  c (Glycine max) effect on crop: 2 (Herbicidal ratio of 20% or more and less than 40%)
Brassica campestris L.
  g (Brassica campestris L.) effect on crop: 4 (Herbicidal ratio of 70% or more and less than 90%)
[1]
  f (Beta vulgaris ssp. vulgaris) effect on crop: 5 (Herbicidal ratio of 90% or more (almost completely withered))
Zea mays
  b (Zea mays) effect on crop: 0 (Herbicidal ratio of 5% or less (almost no effect))
[2]
  d (directly sowed Oryza sativa) effect on crop: 3 (Herbicidal ratio of 40% or more and less than 70%)
Triticum aestivum
  e (Triticum aestivum) effect on crop: 1 (Herbicidal ratio of 5% or more and less than 20%)
[3]
  A: Echinochloa oryzicola Vasing. (herbicidal effect grade): 5 (Herbicidal ratio of 90% or more (almost completely withered))
Scirpus juncoides
  B: Scirpus juncoides (herbicidal effect grade): 4 (Herbicidal ratio of 70% or more and less than 90%)
Monochoria vaginalis
  C: Monochoria vaginalis (herbicidal effect grade): 3 (Herbicidal ratio of 40% or more and less than 70%)
[4]
  a: transplanted Oryza sativa (effect on crop grade): 0 (Herbicidal ratio of 5% or less (almost no effect))
Veronica persica
  R (Veronica persica) herbicidal effect: 5 (Herbicidal ratio of 90% or more (almost completely withered))
Apera spica-venti.
  L (Apera spica-venti.) herbicidal effect: 2 (Herbicidal ratio of 20% or more and less than 40%)
Digitaria ciliaris
  F (Digitaria ciliaris) herbicidal effect: 5 (Herbicidal ratio of 90% or more (almost completely withered))
Abutilon theophrasti
  M (Abutilon theophrasti) herbicidal effect: 5 (Herbicidal ratio of 90% or more (almost completely withered))
Avena fatua
  I (Avena fatua) herbicidal effect: 2 (Herbicidal ratio of 20% or more and less than 40%)
Chenopodium album
  O (Chenopodium album) herbicidal effect: 5 (Herbicidal ratio of 90% or more (almost completely withered))
[5]
  H (Echinochloa crus-galli var. crus-galli) herbicidal effect: 5 (Herbicidal ratio of 90% or more (almost completely withered))
Galium spurium
  Q (Galium spurium) herbicidal effect: 3 (Herbicidal ratio of 40% or more and less than 70%)
Lolium multiflorum Lam.
  K (Lolium multiflorum Lam.) herbicidal effect: 1 (Herbicidal ratio of 5% or more and less than 20%)
Alopecurus myosuroides
  J (Alopecurus myosuroides) herbicidal effect: 1 (Herbicidal ratio of 5% or more and less than 20%)
Setaria viridis
  G (Setaria viridis) herbicidal effect: 5 (Herbicidal ratio of 90% or more (almost completely withered))

## COCCc1nnc(NC(=O)c2ccc(C(F)(F)F)n3c(C(C)C)nnc23)o1 [1-052]
Glycine max
  c (Glycine max) effect on crop: 0 (Herbicidal ratio of 5% or less (almost no effect))
Brassica campestris L.
  g (Brassica campestris L.) effect on crop: 3 (Herbicidal ratio of 40% or more and less than 70%)
[1]
  f (Beta vulgaris ssp. vulgaris) effect on crop: 3 (Herbicidal ratio of 40% or more and less than 70%)
Zea mays
  b (Zea mays) effect on crop: 0 (Herbicidal ratio of 5% or less (almost no effect))
[2]
  d (directly sowed Oryza sativa) effect on crop: 2 (Herbicidal ratio of 20% or more and less than 40%)
Triticum aestivum
  e (Triticum aestivum) effect on crop: 0 (Herbicidal ratio of 5% or less (almost no effect))
[3]
  A: Echinochloa oryzicola Vasing. (herbicidal effect grade): 3 (Herbicidal ratio of 40% or more and less than 70%)
Scirpus juncoides
  B: Scirpus juncoides (herbicidal effect grade): 3 (Herbicidal ratio of 40% or more and less than 70%)
Monochoria vaginalis
  C: Monochoria vaginalis (herbicidal effect grade): 2 (Herbicidal ratio of 20% or more and less than 40%)
[4]
  a: transplanted Oryza sativa (effect on crop grade): 0 (Herbicidal ratio of 5% or less (almost no effect))
Veronica persica
  R (Veronica persica) herbicidal effect: 3 (Herbicidal ratio of 40% or more and less than 70%)
Apera spica-venti.
  L (Apera spica-venti.) herbicidal effect: 3 (Herbicidal ratio of 40% or more and less than 70%)
Digitaria ciliaris
  F (Digitaria ciliaris) herbicidal effect: 3 (Herbicidal ratio of 40% or more and less than 70%)
Abutilon theophrasti
  M (Abutilon theophrasti) herbicidal effect: 4 (Herbicidal ratio of 70% or more and less than 90%)
Avena fatua
  I (Avena fatua) herbicidal effect: 0 (Herbicidal ratio of 5% or less (almost no effect))
Chenopodium album
  O (Chenopodium album) herbicidal effect: 5 (Herbicidal ratio of 90% or more (almost completely withered))
[5]
  H (Echinochloa crus-galli var. crus-galli) herbicidal effect: 2 (Herbicidal ratio of 20% or more and less than 40%)
Galium spurium
  Q (Galium spurium) herbicidal effect: 1 (Herbicidal ratio of 5% or more and less than 20%)
Lolium multiflorum Lam.
  K (Lolium multiflorum Lam.) herbicidal effect: 1 (Herbicidal ratio of 5% or more and less than 20%)
Alopecurus myosuroides
  J (Alopecurus myosuroides) herbicidal effect: 1 (Herbicidal ratio of 5% or more and less than 20%)
Setaria viridis
  G (Setaria viridis) herbicidal effect: 1 (Herbicidal ratio of 5% or more and less than 20%)

## CCC[S+]([O-])c1nnc2c(C(=O)Nc3nnc(C)o3)ccc(C(F)(F)F)n12 (stereo not drawn) [1-092]
Glycine max; [6]
  c: 1 (Herbicidal ratio of 5% or more and less than 20%)
Brassica campestris L.; [6]
  g: 3 (Herbicidal ratio of 40% or more and less than 70%)
[1]; [6]
  f: 5 (Herbicidal ratio of 90% or more (almost completely withered))
Zea mays; [6]
  b: 5 (Herbicidal ratio of 90% or more (almost completely withered))
[2]; [6]
  d: 4 (Herbicidal ratio of 70% or more and less than 90%)
Triticum aestivum; [6]
  e: 0 (Herbicidal ratio of 5% or less (almost no effect))
[3]
  A: Echinochloa oryzicola Vasing. (herbicidal effect grade): 5 (Herbicidal ratio of 90% or more (almost completely withered))
Scirpus juncoides
  B: Scirpus juncoides (herbicidal effect grade): 5 (Herbicidal ratio of 90% or more (almost completely withered))
Monochoria vaginalis
  C: Monochoria vaginalis (herbicidal effect grade): 4 (Herbicidal ratio of 70% or more and less than 90%)
[4]
  a: transplanted Oryza sativa (effect on crop grade): 3 (Herbicidal ratio of 40% or more and less than 70%)
Veronica persica; [7]
  R: 5 (Herbicidal ratio of 90% or more (almost completely withered))
Apera spica-venti.; [7]
  L: 1 (Herbicidal ratio of 5% or more and less than 20%)
Digitaria ciliaris; [7]
  F: 5 (Herbicidal ratio of 90% or more (almost completely withered))
Abutilon theophrasti; [7]
  M: 4 (Herbicidal ratio of 70% or more and less than 90%)
Avena fatua; [7]
  I: 2 (Herbicidal ratio of 20% or more and less than 40%)
Chenopodium album; [7]
  O: 5 (Herbicidal ratio of 90% or more (almost completely withered))
[5]; [7]
  H: 5 (Herbicidal ratio of 90% or more (almost completely withered))
Galium spurium; [7]
  Q: 3 (Herbicidal ratio of 40% or more and less than 70%)
Lolium multiflorum Lam.; [7]
  K: 1 (Herbicidal ratio of 5% or more and less than 20%)
Alopecurus myosuroides; [7]
  J: 1 (Herbicidal ratio of 5% or more and less than 20%)
Setaria viridis; [7]
  G: 5 (Herbicidal ratio of 90% or more (almost completely withered))
